Reference: ChEMBL document CHEMBL1201862, “PubChem BioAssay data set” (2004)
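Tested at 5 concentrations; 48 h exposure; 96-well plates; endpoints linearly interpolated, else capped at highest concentration. GI50 = concentration required for 50% inhibition of growth.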 Activity calls are given as the source filed them. Cut-off read from the data, not from the text of the source: active = GI50 up to about 1.1 µM and inactive = higher.

How the values were obtained:
Assay in all cases: DTP human tumour cell line panel, 48 h
A498 = tested on: A498
ACHN = tested on: ACHN
CAKI-1 = tested on: CAKI-1
EKVX = tested on: EKVX
HCT-15 = tested on: HCT-15
HOP-92 = tested on: HOP-92
IGROV-1 = tested on: IGROV-1
K562 = tested on: K562
LOX IMVI = tested on: LOX IMVI
MCF7 = tested on: MCF7
MDA-MB-231 = tested on: MDA-MB-231
Malme-3M = tested on: Malme-3M
NCI-H460 = tested on: NCI-H460
OVCAR-8 = tested on: OVCAR-8
PC-3 = tested on: PC-3
SF-539 = tested on: SF-539
SK-OV-3 = tested on: SK-OV-3
SNB-19 = tested on: SNB-19
UO-31 = tested on: UO-31
T47D = tested on: T47D

| Structure (SMILES) | GI50 (A498) | GI50 (ACHN) | GI50 (CAKI-1) | GI50 (EKVX) | GI50 (HCT-15) [µM] | GI50 (HOP-92) | GI50 (IGROV-1) | GI50 (K562) | GI50 (LOX IMVI) | GI50 (MCF7) | GI50 (MDA-MB-231) | GI50 (Malme-3M) | GI50 (NCI-H460) | GI50 (OVCAR-8) | GI50 (PC-3) | GI50 (SF-539) | GI50 (SK-OV-3) | GI50 (SNB-19) | GI50 (UO-31) | GI50 (T47D) |
| --- | --- | --- | --- | --- | --- | --- | --- | --- | --- | --- | --- | --- | --- | --- | --- | --- | --- | --- | --- | --- |
| CN(C)S(=O)(=O)Nc1ccccn1 | > 100 µM (inactive) | > 100 µM (inactive) | > 100 µM (inactive) | > 100 µM (inactive) | > 100 | > 100 µM (inactive) | > 100 µM (inactive) | > 100 µM (inactive) | > 100 µM (inactive) | > 100 µM (inactive) | > 100 µM (inactive) | > 100 µM (inactive) | > 100 µM (inactive) | > 100 µM (inactive) | > 100 µM (inactive) | > 100 µM (inactive) | > 100 µM (inactive) | > 100 µM (inactive) | > 100 µM (inactive) |  |
| OC(c1ccccc1)(c1ccccc1)c1nccc2ccccc12 |  | 37.6 µM (inactive) | 20.1 µM (inactive) | 20.7 µM (inactive) | 37.3 |  | 40 µM (inactive) | > 10 µM (inactive) | 17.6 µM (inactive) | 35.2 µM (inactive) | 37.7 µM (inactive) | 30 µM (inactive) | 17.3 µM (inactive) | 37.8 µM (inactive) | 22.2 µM (inactive) |  | 22.5 µM (inactive) | 27.9 µM (inactive) | 17.8 µM (inactive) | 27.3 µM (inactive) |
| O=C1c2ccccc2C(=O)c2c(Nc3ccc4c5c(cccc35)C(=O)c3ccccc3-4)cccc21 | > 100 µM (inactive) | > 100 µM (inactive) | > 100 µM (inactive) | > 100 µM (inactive) | > 100 | > 100 µM (inactive) | 71.1 µM (inactive) | > 100 µM (inactive) | > 100 µM (inactive) |  | > 100 µM (inactive) | > 100 µM (inactive) | > 100 µM (inactive) |  | > 100 µM (inactive) |  |  | > 100 µM (inactive) | > 100 µM (inactive) | > 100 µM (inactive) |
| OCCCCCNc1ccnc2cc(Cl)ccc12 | > 100 µM (inactive) | > 100 µM (inactive) | > 100 µM (inactive) | 86.3 µM (inactive) | > 100 | > 100 µM (inactive) | > 100 µM (inactive) | 21.9 µM (inactive) | > 10 µM (inactive) |  |  | > 100 µM (inactive) | 69.3 µM (inactive) | 64.1 µM (inactive) |  | > 100 µM (inactive) | > 100 µM (inactive) | > 100 µM (inactive) | 24.2 µM (inactive) |  |
| C#CCN(N=O)C(=O)NC(CCCNC(=O)OCc1ccccc1)C(=O)OCc1ccccc1 (stereo unspecified) | > 100 µM (inactive) | > 100 µM (inactive) | 28.1 µM (inactive) | > 100 µM (inactive) | 76.4 | 30.9 µM (inactive) | > 100 µM (inactive) | 61.9 µM (inactive) | 52.4 µM (inactive) |  |  | > 100 µM (inactive) | > 100 µM (inactive) | 43.4 µM (inactive) |  | 75.7 µM (inactive) | > 100 µM (inactive) | > 100 µM (inactive) | > 100 µM (inactive) |  |
| CCN1C(=O)/C(=C\c2coc3ccccc3c2=O)SC1=S | > 100 µM (inactive) | > 100 µM (inactive) | > 100 µM (inactive) | > 100 µM (inactive) | 39.1 | > 100 µM (inactive) | > 100 µM (inactive) | > 100 µM (inactive) | 42.1 µM (inactive) |  |  | > 100 µM (inactive) | > 100 µM (inactive) | > 100 µM (inactive) |  | 32.8 µM (inactive) | > 100 µM (inactive) | > 100 µM (inactive) | > 100 µM (inactive) |  |
| Cc1c2ncccc2c(C)c2c1[nH]c1ccccc12 | 12.5 µM (inactive) | 12.9 µM (inactive) | 9.23 µM (inactive) | 16 µM (inactive) | 7.24 | 7.98 µM (inactive) | 12.3 µM (inactive) | 14.5 µM (inactive) | 5.66 µM (inactive) |  |  | 15.1 µM (inactive) | 5.18 µM (inactive) | 10.5 µM (inactive) |  | 13.2 µM (inactive) | 17.4 µM (inactive) | 13.8 µM (inactive) | > 10 µM (inactive) |  |
| O=C(Nc1nc(C23CC4CC(CC(C4)C2)C3)cs1)c1cc2cc(Cl)ccc2oc1=O | > 100 µM (inactive) | > 100 µM (inactive) | > 100 µM (inactive) | > 100 µM (inactive) | > 100 | > 100 µM (inactive) | > 100 µM (inactive) | > 100 µM (inactive) | > 100 µM (inactive) | > 100 µM (inactive) | > 100 µM (inactive) | > 100 µM (inactive) | > 100 µM (inactive) | > 100 µM (inactive) | > 100 µM (inactive) | > 100 µM (inactive) |  | > 100 µM (inactive) | > 100 µM (inactive) |  |
| COc1ccccc1C(C1=C(O)COC1=O)c1cc2c(cc1OC(C)=O)OCO2 (stereo unspecified) | > 100 µM (inactive) | > 100 µM (inactive) | > 100 µM (inactive) | > 100 µM (inactive) | > 100 |  | > 100 µM (inactive) | > 100 µM (inactive) | > 100 µM (inactive) | > 100 µM (inactive) | > 100 µM (inactive) | > 100 µM (inactive) | > 100 µM (inactive) | > 100 µM (inactive) | > 100 µM (inactive) | > 100 µM (inactive) | > 100 µM (inactive) | > 100 µM (inactive) | > 100 µM (inactive) |  |
| CCCCCCCCCCCCCCCCc1c(C(=O)OC)[nH]c(=S)[nH]c1=O | > 50 µM (inactive) | > 50 µM (inactive) | > 50 µM (inactive) | > 50 µM (inactive) | > 50 | 12.1 µM (inactive) | > 50 µM (inactive) | > 50 µM (inactive) | > 50 µM (inactive) |  |  | > 50 µM (inactive) | > 50 µM (inactive) | > 50 µM (inactive) |  | > 50 µM (inactive) | > 50 µM (inactive) | > 50 µM (inactive) | > 50 µM (inactive) |  |
| CN1C(c2ccccc2)CC(=O)C(N)C1c1ccccc1 (stereo unspecified) | > 67.6 µM (inactive) | 35.9 µM (inactive) | 28.3 µM (inactive) | > 53 µM (inactive) | 26.1 | 25.8 µM (inactive) | 43.5 µM (inactive) | 30.6 µM (inactive) | 18 µM (inactive) |  |  | 22.1 µM (inactive) | 22.2 µM (inactive) | 26.8 µM (inactive) |  | 42.1 µM (inactive) | > 58.6 µM (inactive) | 56.9 µM (inactive) | 25.5 µM (inactive) |  |
| N#Cc1ccccc1C#C/C=C\C#Cc1ccccn1 |  | 29.6 µM (inactive) | 21.8 µM (inactive) | 22.9 µM (inactive) | 18.8 | 26.9 µM (inactive) | 17 µM (inactive) |  |  | 14.4 µM (inactive) |  | 19.3 µM (inactive) | 20.4 µM (inactive) | 13.1 µM (inactive) | 13.7 µM (inactive) | 20.5 µM (inactive) | 25.1 µM (inactive) | 25.9 µM (inactive) | 15.3 µM (inactive) | 20.8 µM (inactive) |
| N#C/C=C\c1ccc(-c2cc(C(F)(F)F)cc(C(F)(F)F)c2)o1 | 26.5 µM (inactive) | > 100 µM (inactive) | 35.3 µM (inactive) | 34.1 µM (inactive) |  | 20.7 µM (inactive) | 47.2 µM (inactive) | 42.1 µM (inactive) | 38.7 µM (inactive) | 71.8 µM (inactive) | 36.8 µM (inactive) | 64.4 µM (inactive) | 86.3 µM (inactive) | 23 µM (inactive) | > 100 µM (inactive) | 10 µM (inactive) | 30.3 µM (inactive) | 30 µM (inactive) | > 100 µM (inactive) |  |
| COc1cc(CNC(=O)[C@H](Cc2ccc(O)cn2)NC(C)=O)cc(OC)c1 | > 100 µM (inactive) | > 100 µM (inactive) | > 100 µM (inactive) | 60 µM (inactive) | > 100 | 13.2 µM (inactive) | 36.3 µM (inactive) | 83 µM (inactive) | > 100 µM (inactive) | > 100 µM (inactive) |  | > 100 µM (inactive) | > 100 µM (inactive) |  | 99.3 µM (inactive) | > 100 µM (inactive) | > 100 µM (inactive) | > 100 µM (inactive) | > 100 µM (inactive) | 75 µM (inactive) |
| CCCCCCCC/C=C1\CCC(CN(C)C)C1=O (stereo unspecified) | 16.5 µM (inactive) | 6.61 µM (inactive) | 3.1 µM (inactive) | 9.06 µM (inactive) | 2.77 | 3.33 µM (inactive) | 8.17 µM (inactive) | 2.51 µM (inactive) | 1.92 µM (inactive) |  |  | 3.18 µM (inactive) | 10.7 µM (inactive) | 3.23 µM (inactive) |  | 4.82 µM (inactive) | 17.2 µM (inactive) | 16.7 µM (inactive) | 11 µM (inactive) |  |
| COC1C(O)C(C)OC(O[C@H]2CC[C@@]3(C)C(CC[C@@H]4[C@@H]3CC[C@]3(C)[C@@H](C(C)OC5OC(CO)C(O)C(O)C5O)CC[C@]43O)C2)C1O (stereo partly specified) | > 25 µM (inactive) | > 25 µM (inactive) | > 25 µM (inactive) | > 25 µM (inactive) | > 25 | > 25 µM (inactive) | > 25 µM (inactive) | > 25 µM (inactive) | > 25 µM (inactive) | > 25 µM (inactive) | > 25 µM (inactive) |  | > 25 µM (inactive) | > 25 µM (inactive) | > 25 µM (inactive) | > 25 µM (inactive) | > 25 µM (inactive) | > 25 µM (inactive) | > 25 µM (inactive) |  |
| O=C1C2C3C=CC(C2C(=O)N1COP(=O)(O)O)C1C2C(=O)N(COP(=O)(O)O)C(=O)C2C31 (stereo unspecified) | > 100 µM (inactive) | > 91.2 µM (inactive) | > 100 µM (inactive) | > 100 µM (inactive) | > 41.3 | > 100 µM (inactive) | > 100 µM (inactive) | > 67 µM (inactive) | > 43.4 µM (inactive) |  |  | > 100 µM (inactive) | > 41.9 µM (inactive) | > 100 µM (inactive) |  | > 100 µM (inactive) | > 100 µM (inactive) | > 100 µM (inactive) | > 100 µM (inactive) |  |
